Laboratory results as given in patent US8697692B2, “Pyrrolo [3,2-c] pyridine-4-one 2-indolinone protein kinase inhibitors” (Shanghai Hengrui Pharmaceutical Co., Ltd., priority 2006, dated 2014).

Columns and labels:
A431 cell = experiment: Cell Proliferation Inhibition EGFR Assay (SRB method); type: cell-based, homo sapient; conditions: Homo sapiens, A-431; A431 cells, 72 hours exposure, Sulforhodamine B; read-out: IC50 (A431)
How it was run: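 A431 cells grown to ~85% confluence, then exposed 72 hours at 37° C to 6 to 7 serial concentrations of compound in DMEM/F12 + 10% FBS, final DMSO ≤0.5%. Growth measured by TCA fixation and sulforhodamine B staining; IC50 calculated from inhibition rates.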

HER-2/ErbB2 kinase = biological target: T1, HER-2/ErbB2 kinase (Homo sapiens, UniProt P04626); experiment: HER-2 Kinase Assay (ELISA); type: biochemical; conditions: 20 μM ATP, 25° C. 60 minutes
T1 construct: purchased Invitrogen corporation #PV3366
T1 sequence (P04626 23-1255): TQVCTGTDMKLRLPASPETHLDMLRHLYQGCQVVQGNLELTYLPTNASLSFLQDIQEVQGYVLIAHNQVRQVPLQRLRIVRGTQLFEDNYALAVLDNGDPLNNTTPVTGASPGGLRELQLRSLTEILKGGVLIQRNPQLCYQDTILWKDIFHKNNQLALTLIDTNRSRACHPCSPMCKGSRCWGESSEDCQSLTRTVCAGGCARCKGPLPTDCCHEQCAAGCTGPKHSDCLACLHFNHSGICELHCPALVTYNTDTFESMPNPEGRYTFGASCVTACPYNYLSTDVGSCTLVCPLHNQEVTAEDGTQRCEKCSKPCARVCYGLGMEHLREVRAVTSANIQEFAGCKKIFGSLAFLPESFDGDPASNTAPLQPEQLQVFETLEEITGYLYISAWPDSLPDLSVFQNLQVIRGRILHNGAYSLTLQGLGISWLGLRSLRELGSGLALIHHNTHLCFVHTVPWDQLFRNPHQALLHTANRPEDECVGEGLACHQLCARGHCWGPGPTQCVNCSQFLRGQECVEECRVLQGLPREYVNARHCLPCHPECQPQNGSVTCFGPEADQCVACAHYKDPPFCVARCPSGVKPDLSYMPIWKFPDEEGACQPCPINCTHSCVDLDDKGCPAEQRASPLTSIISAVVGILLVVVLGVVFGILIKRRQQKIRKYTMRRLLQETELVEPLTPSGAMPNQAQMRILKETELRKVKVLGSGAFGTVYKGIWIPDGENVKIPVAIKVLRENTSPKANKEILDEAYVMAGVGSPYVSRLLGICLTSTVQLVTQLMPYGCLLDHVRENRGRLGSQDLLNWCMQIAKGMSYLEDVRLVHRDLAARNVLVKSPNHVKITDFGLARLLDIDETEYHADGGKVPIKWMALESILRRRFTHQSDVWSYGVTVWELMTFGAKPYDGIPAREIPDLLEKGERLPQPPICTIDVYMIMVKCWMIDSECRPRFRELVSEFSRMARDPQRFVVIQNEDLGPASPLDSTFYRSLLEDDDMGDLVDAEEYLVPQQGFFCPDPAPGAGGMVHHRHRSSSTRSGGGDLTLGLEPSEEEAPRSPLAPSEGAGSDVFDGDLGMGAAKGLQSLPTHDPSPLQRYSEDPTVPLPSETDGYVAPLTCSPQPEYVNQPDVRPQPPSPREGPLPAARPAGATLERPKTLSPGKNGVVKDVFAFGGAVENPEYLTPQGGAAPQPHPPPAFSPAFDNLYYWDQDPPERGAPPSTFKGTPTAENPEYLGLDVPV
Protocol: An enzyme linked immunosorbent assays (ELISA) was conducted to measure the kinase activity of HER-2 in vitro.
a. Wash Buffer (PBS-T Buffer): 1×PBS (137 mM NaCl; 2.7 mM KCl, 4.3 mM Na2HPO4, 1.4 mM KH2PO4, adjust the pH to 7.2) and 0.05% Tween-20.
b. 1% Bovine Serum Albumin (BSA, Calbiochem #136593) in PBS-T.
c. Stop Buffer: 50 mM EDTA, pH 8.0.
d. DELFIA® Europium-labeled Anti-mouse IgG (PerkinElmer Life Sciences #AD0124).
e. DELFIA® Enhancement Solution (PerkinElmer Life Sciences #1244-105).
f. DELFIA® Streptavidin coated, 96-well, yellow plate (PerkinElmer Life Sciences #AAAND-0005).
g. HER-2/ErbB2 kinase (Invitrogen corporation #PV3366).
h. 10 mM ATP solution (Cell signaling technology #9804).
i. FLT3 (Tyr589) Biotinylated Peptide (Cell signaling technology #1305).
j. Phospho-Tyrosine Mouse mAb (P-Tyr-100) (Cell signaling technology #9411).
k. HTScan™ Tyrosine Kinase Buffer (4×)
(Cell signaling technology #9805).
l. 1.25 M DTT (1000×) (Cell signaling technology).
The following protocol was used:
1. Dilute test compound with DMSO to the desired final assay concentration. Add 1 μl test compound for every assay, to the negative control.
2. Dilute 6 μM substrate peptide (Tyr589) 1:1 with dH2O, add 15 μl to every assay.
3. Immediately transfer HER-2 enzyme from −80° C. to ice. Allow enzyme to thaw on ice.
4. Take 4.5 μg HER-2 enzyme to the enzyme tube.
5. Add 10 μl of DTT (1.25 M) to 2.5 ml of 4×HTScan™ Tyrosine Kinase Buffer (240 mM HEPES pH 7.5, 20 mM MgCl2, 20 mM MnCl2, 12 μM Na3VO4) to make DTT/Kinase buffer.
6. Transfer 0.75 ml of DTT/Kinase buffer to each enzyme tube to make 4× reaction cocktail. Add 7.5 μl 4× reaction cocktail to every assay.
7. Add 4 μl ATP (10 mM) to 496 μl dH2O, take 7.5 μl for every assay. Final Assay Conditions for a 30 μl Reaction
Incubate reaction tube at 25° C. for 60 minutes. 9. Add 30 μl/assay stop buffer (50 mM EDTA, pH 8.0) to stop the reaction. 10. Transfer 25 μl of each reaction and 75 μl dH2O/well to a 96-well streptavidin coated plate and incubate, with shaking at room temperature for 60 minutes. 11. Wash three times with 200 μl/well PBS-T buffer. Pat plate on paper towel to remove excess liquid. 12. Dilute primary antibody, Phospho-Tyrosine mAb (P-Tyr-100), 1:1000 in PBS-T buffer with 1% BSA. Add 100 μl diluted primary antibody to each well. 13. Incubate, with shaking at room temperature for 60 minutes. 14. Wash as described above in step 11. 15. Dilute Europium labeled anti-mouse IgG 1:500 in PBS-T buffer with 1% BSA. Add 100 μl diluted antibody to each well. 16. Incubate, with shaking at room temperature for 30 minutes. 17. Wash five times with 200 μl/well PBS-T buffer. Pat plate on paper towel to remove excess liquid. 18. Add 100 μl/well DELFIA® Enhancement Solution. 19. Incubate, with shaking at room temperature for 5 minutes. 20. Detect 615 nm fluorescence emission with appropriate Time-Resolved Plate Reader.
Calculate the inhibition rate: IR (%)=100−100*(X−B)/(N−B)
X=the fluorescence value of the well contained test compound
The IC50 value can be derived from the IRs of compounds at different concentration gradients.

**Q.** Which IC50 (A431 cell) does the source give for Cc1c(/C=C2\C(=O)Nc3cccc(-c4cccc(F)c4)c32)[nH]c2c1C(=O)N(CCN1CCCCC1)CC2 [Example 64, 2-[4-(3-Fluoro-phenyl)-2-oxo-1,2-dihydro-indol-3-ylidenemethyl]-3-methyl-5-(2-piperidin-1-yl-ethyl)-1,5,6,7-tetrahydro-pyrrolo[3,2-c]pyridin-4-one] here?
**A.** 180 nM

**Q.** And the IC50 (HER-2/ErbB2 kinase)?
**A.** 680 nM

**Q.** Which IC50 (A431 cell) does the source give for Cc1c(/C=C2\C(=O)Nc3cccc(Br)c32)[nH]c2c1C(=O)N(CCN1CCCC1)CC2 [Example 69, 2-(4-Bromo-2-oxo-1,2-dihydro-indol-3-ylidenemethyl)-3-methyl-5-(2-pyrrolidin-1-yl-ethyl)-1,5,6,7-tetrahydro-pyrrolo[3,2-c]pyridin-4-one] here?
**A.** 200 nM

**Q.** And the IC50 (HER-2/ErbB2 kinase)?
**A.** 910 nM

**Q.** With Cc1c(/C=C2\C(=O)Nc3cccc(C4CCNCC4)c32)[nH]c2c1C(=O)N(CCN1CCCC1)CC2 [Example 71, 3-Methyl-2-(2-oxo-4-piperidin-4-yl-1,2-dihydro-indol-3-ylidenemethyl)-5-(2-pyrrolidin-1-yl-ethyl)-1,5,6,7-tetrahydro-pyrrolo[3,2-c]pyridin-4-one] as the compound, how does the IC50 (A431 cell) read?
**A.** 590 nM

**Q.** And the IC50 (HER-2/ErbB2 kinase)?
**A.** 1090 nM
